One assay has as its system Rhino mouse comedones. The assay is described as follows: Comedolytic effect of daily topical application in the Rhino mouse. Conditions: for Comedone Area (% Vehicle): Rhino mouse, topical daily ca. 3 weeks, 70 vol % ethanol / 30 vol % propylene glycol, mean ± SEM, N 6. The format is in vivo. The text has this: Rhino mice were used to topically test the compounds and compositions of the invention. The Rhino mouse is a well-established animal model used to study the comedolytic effects of anti-acne agents including retinoids. (See Boulcier M et al., 1990, Experimental Models in Skin Pharmacology, In Pharmacological Reviews 42:127-154). The Rhino mouse model was used to study the therapeutic potential of 13Me2.
Animals and dose administration. Rhino mice were enrolled in the study at 6-8 weeks of age and were dosed daily via the topical route. The mice were weighed three times per week and doses were adjusted weekly based on body weight. The topical formulations were applied to the back of the animal in a maximum volume of 100 μL. The topical formulations were made by mixing the 13Me2 with a topical carrier comprising 70 vol % ethanol and 30 vol % propylene glycol, as indicated. The topical vehicle control was the vehicle carrier solution matched to the formulation containing API and vehicle carrier. Mice were sacrificed 72 hours after the final topical dose. At sacrifice, the dorsal skin was collected for histology studies.
Comedolytic effect. The extent of the comedolytic effect (i.e., efficacy) was assessed by measuring the average area of the comedones, whereby the smaller the area, the larger the effect. The comedone area was determined by histological analysis of tissue sections based upon lab methods. Skin was fixed overnight in 4% paraformaldehyde at 4° C. with gentle agitation, and dehydrated the next day into 100% methanol.
Samples were embedded in paraffin and a total of nine 10μ sections 150μ apart were prepared from each Rhino mouse. Five of the nine sections were digitally imaged (6× magnification) for comedone analysis using Metamorph Imaging Software (trace function). The perimeter of each comedone on the images taken from the 5 sections was then traced using a Wacom Intuos 3 Graphics Tablet interfaced with the software.
The number of pixels comprising the area of each individual comedone was obtained, and the mean number of pixels per comedone was obtained for each Rhino mouse. For comedones that were completely healed (area=0) a pixel value approaching 0 (<10) was scored. The individual comedone area average for each mouse was then used to calculate the treatment group mean. Results in the figures are expressed in terms of mean±standard error of the mean.
Preparation of topical formulations containing 13Me2. A concentrated ethanolic stock of 13Me2 was diluted to a final concentration containing 30 vol % propylene glycol and 70 vol % ethanol as the excipient carrier system. The mixture was thoroughly mixed. The topical dosing formulation delivered a predetermined dosing amount of drug on a per kilogram body weight basis. […]

For assay [1], the target named is T1, Full-length recombinant rat receptor (vitamin D receptor, VDR) (Rattus norvegicus, UniProt P13053).
T1 construct: Full-length recombinant rat receptor was expressed in E. coli; histidine tag (C); made in house; host or cells: E. coli BL21(DE3) Codon Plus RIL
T1 sequence (P13053 1-423): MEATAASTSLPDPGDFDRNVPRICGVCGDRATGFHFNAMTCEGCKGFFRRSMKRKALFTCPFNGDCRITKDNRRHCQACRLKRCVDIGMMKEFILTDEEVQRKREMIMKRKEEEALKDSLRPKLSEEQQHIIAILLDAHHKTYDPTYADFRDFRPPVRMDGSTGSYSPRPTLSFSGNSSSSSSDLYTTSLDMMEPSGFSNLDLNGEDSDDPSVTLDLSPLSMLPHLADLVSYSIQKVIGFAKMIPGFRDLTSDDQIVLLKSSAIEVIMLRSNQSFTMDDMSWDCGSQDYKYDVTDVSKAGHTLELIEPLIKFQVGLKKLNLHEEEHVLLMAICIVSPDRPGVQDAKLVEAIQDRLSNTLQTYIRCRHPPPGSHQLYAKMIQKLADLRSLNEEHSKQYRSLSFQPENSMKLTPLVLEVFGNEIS
Briefly: Competitive vitamin D receptor binding. The following applies: relative to 1.25(OH)2D3; radioligand 3H-1.25(OH)2D3 1 nM. The protocol:
Experimental Methods. […] The first system was a nickel affinity resin that utilizes the C-terminal histidine tag on this protein. The protein that was eluted from this resin was further purified using ion exchange chromatography (S-Sepharose Fast Flow). Aliquots of the purified protein were quick frozen in liquid nitrogen and stored at −80° C. until use. For use in binding assays, the protein was diluted in TEDK50 (50 mM Tris, 1.5 mM EDTA, pH 7.4, 5 mM DTT, 150 mM KCl) with 0.1% Chaps detergent. The receptor protein and ligand concentration was optimized such that no more than 20% of the added radiolabeled ligand was bound to the receptor.
Assay Conditions. […] The hydroxylapaptite was collected by centrifugation and then washed three times with Tris-EDTA buffer (50 mM Tris, 1.5 mM EDTA, pH 7.4) containing 0.5% Titron X-100. After the final wash, the pellets were transferred to scintillation vials containing 4 ml of Biosafe II scintillation cocktail, mixed and placed in a scintillation counter. Total binding was determined from the tubes containing only radiolabeled ligand.

For assay [2], the system named is Human promyelocytic leukemia (HL-60) cells. The assay is described as follows: HL-60 cell differentiation (nitro blue tetrazolium reduction). The assay is classed as cell-based. Conditions: four days of treatment. The protocol:
HL-60 Differentiation. Test Material. Study Drugs. The study drugs were dissolved in ethanol and the concentrations determined using UV spectrophotometry. Serial dilutions were prepared so that a range of drug concentrations could be tested without changing the final concentration of ethanol (<0.2%) present in the cell cultures.
Cells. Human promyelocytic leukemia (HL-60) cells were grown in RPMI-1640 medium containing 10% fetal bovine serum. The cells were incubated at 37° C. in the presence of 5% CO2.
Assay Conditions. HL-60 cells were plated at 1.2×10^5 cells/ml. Eighteen hours after plating, cells in duplicate were treated with drug. Four days later, the cells were harvested and a nitro blue tetrazolium reduction assay was performed. (Collins et al., 1979, J. Exp. Med. 149:969-974). The percentage of differentiated cells was determined by counting a total of 200 cells and recording the number that contained intracellular black-blue formazan deposits. Verification of differentiation to monocytic cells was determined by measuring phagocytic activity (data not shown).

In assay [3] the test system is 24-hydroxylase (24OHase) gene promoter. The assay is described as follows: In vitro 24-OHase transcription assay (luciferase reporter in ROS 17/2.8 bone cells). The format is cell-based. The following applies: ROS 17/2.8 cells, sixteen hours after dosing. On the procedure:
In vitro Transcription Assay. Transcription activity was measured in ROS 17/2.8 (bone) cells that were stably transfected with a 24-hydroxylase (24OHase) gene promoter upstream of a luciferase reporter gene. (Arbour et al., 1998). Cells were given a range of doses. Sixteen hours after dosing the cells were harvested and luciferase activities were measured using a luminometer. RLU=relative luciferase units.
(Reporter assays use an easily measured gene product as a stand-in for the process of interest.)

The subject of assay [4] is intestinal calcium transport. Briefly: Intestinal calcium transport (everted gut sac method). The assay is classed as in vivo, rat. Conditions: Sprague-Dawley rats, four consecutive intraperitoneal doses. On the procedure: (§1) Intestinal Calcium Transport and Bone Calcium Mobilization Activity. Male, weanling Sprague-Dawley rats were placed on Diet 11 (0.47% Ca) diet+AEK oil for one week followed by Diet 11 (0.02% Ca)+AEK oil for 3 weeks. The rats were then switched to a diet containing 0.47% Ca for one week followed by two weeks on a diet containing 0.02% Ca. Dose administration began during the last week on 0.02% calcium diet. Four consecutive intraperitoneal doses were given approximately 24 hours apart. Twenty-four hours after the last dose, blood was collected from the severed neck and the concentration of serum calcium determined as a measure of bone calcium mobilization. The first 10 cm of the intestine was also collected for intestinal calcium transport analysis using the everted gut sac method.

Assay [5] relates to bone calcium mobilization. The assay is described as follows: Bone calcium mobilization (serum calcium). The following applies: Sprague-Dawley rats, four consecutive intraperitoneal doses. The format is in vivo, rat. The protocol:
as §1

For `C=C1/C(=C\C=C2/CCC[C@]3(C)[C@@H]([C@H](C)CCCC(C)(C)O)CC[C@@H]23)C[C@@H](O)C[C@@H]1O` [1,25(OH)2D3, 1,25-DIHYDROXYVITAMIN D3, reference compound], the “Comedone Area (% Vehicle)” value in the assay on Rhino mouse comedones (dose 6.0 nmol/kg) was 187 ± 30 % Vehicle.

`C=C1[C@H](O)CC(=C/C=C/CC(C)(C)C[C@@H](C)CCCC(C)(C)O)C[C@H]1O` [13Me2, (1R,3R)-5-[(E)-(S)-11′-hydroxy-5′,5′,7′,11′-tetramethyl-dodec-2′-enylidene]-2-methylene-cyclohexane-1,3-diol]: the “VDR binding affinity compared to the native hormone” value in assay [1] is “one log less affinity”. Besides, in assay [2], the “HL-60 differentiation activity relative to 1.25(OH)2D3” value was “lower than 1.25(OH)2D3 by approximately one log”. Also, the “24-OHase transcription activity relative to 1.25(OH)2D3” value in assay [3] is “lower than 1.25(OH)2D3 by approximately one log”. Moreover, the “Activity on intestinal calcium transport” value in assay [4] is recorded as “insignificant activity”. Moreover, the “Activity on bone calcium mobilization” value in assay [5] was “insignificant activity”. Besides, the “Comedone area relative to the vehicle-treated group (FIG. 6)” value in the assay with Rhino mouse comedones (Rhino mice, topical 217 nmole/kgBW/day, 3 weeks daily) is “significant reduction in comedone area”. Further, the “Comedone area relative to the vehicle-treated group (FIG. 7)” value in the assay on Rhino mouse comedones (Rhino mice, topical 69 and 217 nmole/kgBW/day, 3 weeks daily) was “dose-dependent reduction in comedone area”. For the same compound, in the assay with Rhino mouse comedones (dose 217 nmol/kg), the “Comedone Area (% Vehicle)” value worked out at 26 ± 3 % Vehicle.

Source of the values: patent US8193171B2, “13,13-dimethyl-des-C,D analogs of 1α,25-dihydroxy-19-nor-vitamin D3 compounds and topical composition dosage forms and methods of treating skin conditions thereof” (Wisconsin Alumni Research Foundation, priority 2008, dated 2012).
